Reference: US11667631B2, “FGFR4 inhibitor, preparation method therefor, and applications thereof” (Jiangsu Hansoh Pharmaceutical Group Co., Ltd., priority 2016, dated 2023)
Read-outs that look alike come from different tables or passages of the source.

Experiments:
HuH-7 cells = assay: Inhibition of HuH-7 cell proliferation (CellTiter-Glo); type: cell-based; settings: Homo sapiens, Huh-7, 72 h, read-out: HuH-7 IC50
Description: In this experiment, the inhibitory effect of the compounds on HuH-7 cell proliferation was tested by a CellTiter-Glo method, and the half maximal inhibitory concentration (IC50) of the compounds on the activity of cell proliferation was determined.
1) A 96-well cell culture plate was seeded with 50˜100 μL of HuH-7 cell suspension at a density of 1˜5×10^4 cells/ml. The culture plate was incubated in an incubator for 16˜24 hours (37° C., 5% CO2).
(§1) 2) Different concentrations of the test compound in a gradient dilution were added to the cells in the culture plate. The culture plate was incubated in an incubator for 72 hours (37° C., 5% CO2).
3) 50˜100 μL of CellTiter-Glo reagent was added to each well. Then, the culture plate was shaken or left to stand for 5˜30 minutes at room temperature.
(§2) 4) The chemiluminescence signal values of each plate were determined by a microplate reader.
(§3) 5) The inhibition rates were calculated according to the chemiluminescence signal values.
(§4) 6) The IC50 of the compound was obtained by curve fitting according to the inhibition rates at different concentrations, and the cell activity of the specific example compounds is shown in Table 2.

SK-HEP-1 cells = assay: Inhibition of SK-HEP-1 cell proliferation (CellTiter-Glo); type: cell-based; settings: read-out: SK-HEP-1 IC50
Description: In this experiment, the inhibitory effect of the compounds on SK-HEP-1 cell proliferation was tested by a CellTiter-Glo method, and the half maximal inhibitory concentration (IC50) of the compounds on the activity of cell proliferation was determined.
1) A 96-well cell culture plate was seeded with 50˜100 μL of SK-HEP-1 cell suspension at a density of 1˜5×10^4 cells/ml. The culture plate was incubated in an incubator for 16˜24 hours (37° C., 5% CO2).
as §1
(§5) 3) 50˜100 μL of CellTiter-Glo reagent were added to each well. Then, the culture plate was shaken or left to stand for 5˜30 minutes at room temperature.
as §2, §3, §4

FGFR1 kinase = FGFR1 kinase (Homo sapiens (Human), UniProt P11362); assay: Enzymologic experiment of FGFR1 (TR-FRET); type: biochemical; settings: FGFR1 kinase activity
FGFR1 kinase, sequence (P11362 22-822): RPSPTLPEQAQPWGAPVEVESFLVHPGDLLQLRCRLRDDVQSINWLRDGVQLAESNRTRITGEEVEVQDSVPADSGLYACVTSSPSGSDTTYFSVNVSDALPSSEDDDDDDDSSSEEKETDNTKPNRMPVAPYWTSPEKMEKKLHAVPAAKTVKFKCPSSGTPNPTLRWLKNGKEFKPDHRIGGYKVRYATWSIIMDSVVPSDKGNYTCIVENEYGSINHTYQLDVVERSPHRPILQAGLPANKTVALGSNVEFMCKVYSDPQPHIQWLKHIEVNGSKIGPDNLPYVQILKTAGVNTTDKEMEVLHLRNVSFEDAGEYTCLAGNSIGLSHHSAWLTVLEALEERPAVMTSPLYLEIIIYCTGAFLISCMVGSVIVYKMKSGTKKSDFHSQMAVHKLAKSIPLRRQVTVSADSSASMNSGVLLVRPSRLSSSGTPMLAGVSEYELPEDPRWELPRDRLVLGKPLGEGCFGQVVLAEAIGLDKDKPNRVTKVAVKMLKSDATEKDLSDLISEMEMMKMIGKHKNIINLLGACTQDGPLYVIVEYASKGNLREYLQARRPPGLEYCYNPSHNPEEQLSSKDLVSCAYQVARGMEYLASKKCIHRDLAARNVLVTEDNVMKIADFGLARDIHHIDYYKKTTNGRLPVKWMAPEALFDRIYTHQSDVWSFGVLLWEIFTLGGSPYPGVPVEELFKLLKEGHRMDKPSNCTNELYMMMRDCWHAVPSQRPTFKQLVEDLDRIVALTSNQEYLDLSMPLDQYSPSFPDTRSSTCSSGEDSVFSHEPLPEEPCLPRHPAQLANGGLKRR
Description: In this experiment, the inhibitory effect of the compounds on FGFR1 kinase activity was tested by a fluorescence resonance energy transfer (TR-FRET) method, and the half maximal inhibitory concentration (IC50) of the compounds on the FGFR1 kinase activity was determined.
1) 1˜5 μL of FGFR1 enzyme solution was added to a 384-well plate, and the final concentration of the enzyme was 0.1˜5 nM.
2) 1˜5 μL of diluted solution in gradient of the compound was added.
3) 1˜5 μL of a substrate mixture containing substrate polypeptide with a final concentration of 5˜50 nM and ATP with a final concentration of 10˜200 μM was added.
4) The mixture was incubated for 0.5˜3 hours at room temperature.
5) 10 μL of EDTA and a test solution comprising labeled antibody were added, and the plate was incubated for 1 hour at room temperature.
6) The fluorescence signal values of each plate were determined by a microplate reader at 665 nm.
7) The inhibition rates were calculated according to the fluorescence signal values.
8) The IC50 of the compound was obtained by curve fitting according to the inhibition rates at different concentrations, and the enzymatic activity of the specific example compounds is shown in Table 1.

Hep 3B cells = assay: Inhibition of Hep 3B cell proliferation (CellTiter-Glo); type: cell-based
Description: In this experiment, the inhibitory effect of the compounds on Hep 3B cell proliferation was tested by a CellTiter-Glo method, and the half maximal inhibitory concentration (IC50) of the compounds on the activity of cell proliferation was determined.
1) A 96-well cell culture plate was seeded with 50˜100 μL of Hep 3B cell suspension at a density of 1˜5×10^4 cells/ml. The culture plate was incubated in an incubator for 16˜24 hours (37° C., 5% CO2).
as §1, §5, §2, §3

[1] = Pharmacokinetic (PK) analysis in rats; type: in vivo, Sprague Dawley (SD) rats; settings: SD rats, single intragastric administration, 5 mg/kg; for Peak Time tmax: (sampling in hours); for AUC(0-t) / AUC(0-inf) / half-life / MRT / Cmax: Sprague-Dawley, rat, plasma, po; for AUC(0-t): read-out: Area Under Curve AUC0-t; for AUC(0-inf): read-out: Area Under Curve AUC0-∞; for half-life: read-out: Half-Time t1/2 (converted); for MRT: read-out: Mean Residence Time MRT; for Cmax: read-out: Plasma Concentration Cmax
Description: 1) 0.2 ml of intravenous blood was collected and placed in a K2EDTA test tube. The blood was centrifuged at room temperature at the speed of 1000˜3000×g for 5˜20 minutes to isolate the plasma, which was then stored at −80° C.
2) 160 μL of acetonitrile was added to 40 μL of plasma sample for precipitation, and then the mixture was centrifuged at the speed of 500˜2000×g for 5˜20 minutes.
3) 100 μL of treated solution was taken, and the concentration of the test compound was analyzed by LC/MS/MS. The LC/MS/MS analytical instrument was AB Sciex API 4000. • Liquid chromatography analysis: • Condition of Liquid chromatography: Shimadzu LC-20AD pump • Chromatographic column: phenomenex Gemiu 5 um C18 50×4.6 mm • Mobile phase: Solution A is 0.1% formic acid aqueous solution, and Solution B is acetonitrile • Flow rate: 0.8 mL/min • Elution time: 0-3.5 minutes, the eluent was used as follows: […]

[2] = Homo sapiens, Hep3B, 72 h, read-out: Hep 3B IC50, Hep 3B cell proliferation, 72 hours, CellTiter-Glo
[3] = read-out: Hep 3B IC50, Hep 3B cell proliferation, 72 hours, CellTiter-Glo

| SMILES | IC50 (HuH-7 cells) [nM] | IC50 (SK-HEP-1 cells; Homo sapiens, SK-HEP1, 72 h) [nM] | IC50 (FGFR1 kinase) [nM] | IC50 (Hep 3B cells; [2]) [nM] | Peak Time tmax [1] [h] | AUC(0-t) [1] [ng·h/mL] | AUC(0-inf) [1] [ng·h/mL] | half-life [1] [h] | MRT [1] [h] | Cmax [1] [ng/mL] | IC50 (SK-HEP-1 cells; SK-HEP-1 cell proliferation, 72 hours, CellTiter-Glo) [nM] | IC50 (Hep 3B cells; [3]) [nM] |
| --- | --- | --- | --- | --- | --- | --- | --- | --- | --- | --- | --- | --- |
| CO[C@H]1CCN(c2cc(NC(=O)N3CCCc4cc(CN5CCCOC5=O)c(C=O)nc43)ncc2C#N)C1 [Example 50, (S)-N-(5-Cyano-4-(3-methoxypyrrolidin-1-yl)pyridin-2-yl)-7-formyl-6-((2-carbonyl-1,3-oxazinan-3-yl)methyl)-3,4-dihydro-1,8-naphthyridin-1(2H)-carboxamide] | 15.3 | > 10000 | > 10000 | 5.5 |  |  |  |  |  |  |  |  |
| CO[C@@H]1CCN(c2cc(NC(=O)N3CCCc4cc(CN5CCCOC5=O)c(C=O)nc43)ncc2C#N)C1 [Example 49, (R)-N-(5-Cyano-4-(3-methoxypyrrolidin-1-yl)pyridin-2-yl)-7-formyl-6-((2-carbonyl-1,3-oxazinan-3-yl)methyl)-3,4-dihydro-1,8-naphthyridin-1(2H)-carboxamide] | 11.3 | > 10000 | > 10000 | 4.4 |  |  |  |  |  |  |  |  |
| COc1ccncc1Nc1cc(NC(=O)N2CCCc3cc(CN4CCOCC4=O)c(C=O)nc32)ncc1C#N [Example 58, N-(5-Cyano-4-((4-methoxypyridin-3-yl)amino)pyridin-2-yl)-7-formyl-6-((3-carbonylmorpholino)methyl)-3,4-dihydro-1,8-naphthyridin-1(2H)-carboxamide] | 20.7 | > 10000 | > 10000 | 6.9 |  |  |  |  |  |  |  |  |
| CO[C@@H]1CCCC1Nc1cc(NC(=O)N2CCCc3cc(CN4CCOCC4=O)c(C=O)nc32)ncc1C#N (stereo partly drawn) [Example 1, N-(5-Cyano-4-(((trans)-2-methoxycyclopentyl)amino)pyridin-2-yl)-7-formyl-6-((3-carbonylmorpholino)methyl)-3,4-dihydro-1,8-naphthyridin-1(2H)-carboxamide] | 3 | > 10000 |  | 0.7 | 0.5 | 1010 | 5040 | 1.1 | 1.1 | 1140 |  |  |
| CO[C@H]1CCOCC1Oc1cc(NC(=O)N2CCCc3cc(CN4CCOCC4=O)c(C=O)nc32)ncc1C#N (stereo partly drawn) [Example 69, N-(5-Cyano-4-(((3,4)-trans-3-methoxytetrahydro-2H-pyran-4-yl)oxy)pyridin-2-yl) -7-formyl-6-((3-carbonylmorpholino)methyl)-3,4-dihydro-1,8-naphthyridin-1(2H)-carboxamide] |  |  |  |  |  |  |  |  |  |  | > 10000 | 22.6 |
| CO[C@H]1CCN(c2cc(NC(=O)N3CCCc4cc(CN5CCCCOC5=O)c(C=O)nc43)ncc2C#N)C1 [Example 32] | 5.8 | > 10000 | > 10000 | 3.1 |  |  |  |  |  |  |  |  |
| CO[C@@H]1CCN(c2cc(NC(=O)N3CCCc4cc(CN5CCCCOC5=O)c(C=O)nc43)ncc2C#N)C1 [Example 31, (R)-N-(5-Cyano-4-(3-methoxypyrrolidin-1-yl)pyridin-2-yl)-7-formyl-6-((2-carbonyl-1,3-oxazepin-3-yl)methyl)-3,4-dihydro-1,8-naphthyridin-1(2H)-carboxamide] | 6.5 | > 10000 | > 10000 |  | 2 | 1920 | 1920 | 1.27 | 4.54 | 3720 |  |  |
| CO[C@H]1CCN(c2cc(NC(=O)N3CCCc4cc(CN5C(=O)OC[C@@H]5C)c(C=O)nc43)ncc2C#N)C1 [Example 39, N-(5-Cyano-4-((S)-3-methoxypyrrolidin-1-yl)pyridin-2-yl)-7-formyl-6-(((S)-4-methyl-2-carbonyloxazolidin-3-yl)methyl)-3,4-dihydro-1,8-naphthyridin-1(2H)-carboxamide] | 34.6 | > 10000 | > 10000 | 39.3 |  |  |  |  |  |  |  |  |
| CO[C@H]1CCOCC1Oc1cc(NC(=O)N2CCCc3cc(CN4CCOCC4=O)c(C=O)nc32)ncc1C#N (stereo partly drawn) [Example 68, N-(5-Cyano-4-(((3,4)-trans-4-methoxytetrahydro-2H-pyran-3-yl)oxy)pyridin-2-yl) -7-formyl-6-((3-carbonylmorpholino)methyl)-3,4-dihydro-1,8-naphthyridin-1(2H)-carboxamide] | 40.8 | > 10000 | > 10000 |  |  |  |  |  |  |  |  | 10.9 |
| CO[C@H]1CCCC1Nc1cc(NC(=O)N2CCCc3cc(CN4CCOCC4=O)c(C=O)nc32)ncc1C#N (stereo partly drawn) [Example 15, N-(5-Cyano-4-(((cis)-2-methoxycyclopentyl)amino)pyridin-2-yl)-7-formyl-6-((3-carbonylmorpholino)methyl)-3,4-dihydro-1,8-naphthyridin-1(2H)-carboxamide] | 4.9 | > 10000 | > 10000 | 3 |  |  |  |  |  |  |  |  |
| N#Cc1cnc(NC(=O)N2CCCc3cc(CN4CCCCOC4=O)c(C=O)nc32)cc1N[C@H]1CCOC1 [Example 33] | 7.2 | > 10000 | > 10000 | 3.7 |  |  |  |  |  |  |  |  |
| COC1(CNc2cc(NC(=O)N3CCCc4cc(CN5CCOCC5=O)c(C=O)nc43)ncc2C#N)CC1 [Example 9, N-(5-Cyano-4-(((1-methoxycyclopropyl)methyl)amino)pyridin-2-yl)-7-formyl-6-((3-carbonylmorpholino)methyl)-3,4-dihydro-1,8-naphthyridin-1(2H)-carboxamide] | 9.1 | > 10000 | > 10000 | 1.4 |  |  |  |  |  |  |  |  |
| N#Cc1cnc(NC(=O)N2CCCc3cc(CN4CCCCOC4=O)c(C=O)nc32)cc1N[C@@H]1CCOC1 [Example 34, (R)-N-(5-Cyano-4-((tetrahydrofuran-3-yl)amino)pyridin-2-yl)-7-formyl-6-((2-carbonyl-1,3-oxazepin-3-yl)methyl)-3,4-dihydro-1,8-naphthyridin-1(2H)-carboxamide] | 4.9 | > 10000 | > 10000 | 2.3 |  |  |  |  |  |  |  |  |
| COC1CN(c2cc(NC(=O)N3CCCc4cc(CN5CCOCC5=O)c(C=O)nc43)ncc2C#N)C1 [Example 53, N-(5-Cyano-4-(3-methoxyazetidin-1-yl)pyridin-2-yl)-7-formyl-6-((3-carbonylmorpholino)methyl)-3,4-dihydro-1,8-naphthyridin-1(2H)-carboxamide] |  | > 10000 | > 10000 | 41.5 |  |  |  |  |  |  |  |  |
